Assay results: patent US20240252581A1, “COMPOSITIONS AND METHODS FOR TREATING RESPIRATORY DISTRESS” (S.I.S. SHULOV INNOVATIVE SCIENCE LTD., priority 2021, published 2024)
Several values for one entry are separate records, joined by “and”; a condition that tells them apart may be missing. Identical values can stand only once. Entries after “also recorded” stand apart in the source; their conditions may differ. Square brackets hold non-standard residues; d marks the D form. Peptide text beside a SMILES is read from it. * marks the point of attachment. pGlu = O=C1CC[C@@H](C(=O)O)N1; Octanoyl = CCCCCCCC(=O)*

Test system: B cells, T cells, eosinophils, neutrophils, macrophages/dendritic cells in BALF
Test: LPS-induced acute lung injury / ARDS mouse model: BALF differential cell count by FACS
Type: in vivo, BALB/c mice
Parameters: key to Macrophages / B cells / T cells / Eosinophils / Neutrophils: (+) indicates activation; (−) indicates inhibition
Details: for B cells (%) / Eosinophils (%) / Macrophages & dendritic cells (%) / Neutrophils (%) / T cells (%) / Eosinophils / Macrophages: BALF
Protocol: In order to test the efficacy of ZEP3 sodium on lung inflammation, the lipopolysaccharide (LPS)-induced acute lung injury model was used. In particular, LPS was administered intratracheally at doses of 10 or 40 mg/kg body weight (BW) corresponding to 0.2 or 0.8 mg/mouse, respectively.
ZEP3 sodium was administered by inhalation (INH) at doses of 25 or 250 mg/kg BW (0.5 or 5 mg/mouse, respectively), or intratracheally (IT) at doses of 5 or 20 mg/kg BW (0.1 or 0.4 mg/mouse, respectively) 6 hours after LPS administration and its effect was measured 72 hours following administration in the branchial alveolar fluid (BALF) using FACS instrumentation. […]

[1] = Group 2: ZEP3Na 0.1 mg IT, no LPS, group mean
[2] = Group 2: ZEP3Na 0.1 mg IT, no LPS, individual mice
[3] = Group 3: ZEP3Na 0.4 mg IT, no LPS, group mean
[4] = Group 3: ZEP3Na 0.4 mg IT, no LPS, individual mice
[5] = Group 4: LPS 0.8 mg + ZEP3Na 0.1 mg IT, group mean
[6] = Group 4: LPS 0.8 mg + ZEP3Na 0.1 mg IT, individual mice
[7] = Group 5: LPS 0.8 mg + ZEP3Na 0.4 mg IT, group mean
[8] = Group 5: LPS 0.8 mg + ZEP3Na 0.4 mg IT, individual mice
[9] = Group 8: LPS 0.2 mg + ZEP3Na 0.1 mg IT, group mean
[10] = Group 8: LPS 0.2 mg + ZEP3Na 0.1 mg IT, individual mice
[11] = Group 9: LPS 0.2 mg + ZEP3Na 0.4 mg IT, group mean
[12] = Group 9: LPS 0.2 mg + ZEP3Na 0.4 mg IT, individual mice
[13] = LPS 0.2 mg + ZEP3Na (IT) 0.1 mg
[14] = LPS 0.2 mg + ZEP3Na (IT) 0.4 mg

## CCCCCCCC(=O)NCCCC[C@H](NC(=O)[C@H](Cc1c[nH]c2ccccc12)NC(=O)[C@H](CC(N)=O)NC(=O)[C@@H]1CCC(=O)N1)C(=O)O [ZEP3Na, pGlu-Asn-Trp-Lys(Octanoyl)-ONa] ([pGlu]NWK(Octanoyl)-OH)
0.2 mg LPS, ZEP3Na 0.1 and 0.4 mg, compared to untreated mice that received 0.2 mg LPS
  bronchoalveolar eosinophils percentage: significant decrease; also recorded: significantly inhibited
[1]
  B cells (%): 0.163%
  Eosinophils (%): 0.412%
  Macrophages & dendritic cells (%): 66.715%
  Neutrophils (%): 6.816%
  T cells (%): 3.078%
[2]
  B cells (%): 0.320% and 0.208% and 0.091% and 0.218% and 0.150% and 0.089% and 0.103% and 0.162% and 0.147% and 0.138%
  Eosinophils (%): 0.192% and 0.556% and 0.185% and 0.196% and 0.692% and 0.058% and 0.261% and 0.828% and 0.606% and 0.546%
  Macrophages & dendritic cells (%): 69.267% and 65.626% and 66.568% and 65.527% and 65.957% and 70.380% and 68.287% and 64.068% and 65.131% and 66.345%
  Neutrophils (%): 8.302% and 7.056% and 4.882% and 7.770% and 5.279% and 3.207% and 3.871% and 12.158% and 8.592% and 7.044%
  T cells (%): 3.447% and 3.524% and 4.627% and 2.747% and 2.636% and 1.788% and 2.856% and 2.681% and 3.118% and 3.354%
[3]
  B cells (%): 0.176%
  Eosinophils (%): 0.277%
  Macrophages & dendritic cells (%): 72.219%
  Neutrophils (%): 4.248%
  T cells (%): 1.983%
[4]
  B cells (%): 0.310% and 0.225% and 0.162% and 0.154% and 0.106% and 0.100% and 0.160% and 0.223% and 0.144%
  Eosinophils (%): 0.151% and 0.400% and 0.136% and 0.176% and 0.138% and 0.390% and 0.192% and 0.540% and 0.366%
  Macrophages & dendritic cells (%): 72.760% and 67.646% and 73.862% and 72.372% and 77.634% and 73.286% and 72.368% and 67.355% and 72.688%
  Neutrophils (%): 3.325% and 7.965% and 2.600% and 3.496% and 2.405% and 3.740% and 3.111% and 7.438% and 4.152%
  T cells (%): 2.519% and 3.322% and 1.247% and 1.675% and 1.513% and 1.348% and 1.817% and 2.755% and 1.654%
[5]
  B cells (%): 0.164%
  Eosinophils (%): 0.833%
  Macrophages & dendritic cells (%): 20.180%
  Neutrophils (%): 59.048%
  T cells (%): 2.194%
[6]
  B cells (%): 0.118% and 0.102% and 0.048% and 0.030% and 0.045% and 0.489% and 0.052% and 0.572% and 0.017%
  Eosinophils (%): 0.170% and 0.064% and 1.024% and 0.755% and 0.646% and 3.005% and 0.568% and 0.840% and 0.425%
  Macrophages & dendritic cells (%): 71.986% and 72.475% and 1.316% and 0.956% and 1.424% and 16.916% and 1.107% and 14.732% and 0.713%
  Neutrophils (%): 6.007% and 2.454% and 77.259% and 86.115% and 82.630% and 57.391% and 82.523% and 54.903% and 82.147%
  T cells (%): 0.991% and 1.527% and 0.804% and 0.573% and 0.865% and 5.340% and 0.937% and 8.033% and 0.675%
[7]
  B cells (%): 0.054%
  Eosinophils (%): 0.475%
  Macrophages & dendritic cells (%): 12.756%
  Neutrophils (%): 67.517%
  T cells (%): 0.895%
[8]
  B cells (%): 0.014% and 0.011% and 0.028% and 0.024% and 0.167% and 0.138% and 0.026% and 0.022%
  Eosinophils (%): 0.303% and 0.448% and 0.323% and 0.298% and 1.427% and 0.195% and 0.530% and 0.280%
  Macrophages & dendritic cells (%): 0.470% and 0.297% and 0.271% and 0.442% and 30.597% and 68.407% and 0.798% and 0.764%
  Neutrophils (%): 77.586% and 88.700% and 84.629% and 80.400% and 39.818% and 3.154% and 84.929% and 80.922%
  T cells (%): 0.383% and 0.495% and 0.512% and 0.577% and 1.800% and 2.098% and 0.609% and 0.685%
[9]
  B cells (%): 0.097%
  Eosinophils (%): 0.210%
  Macrophages & dendritic cells (%): 2.327%
  Neutrophils (%): 79.428%
  T cells (%): 1.662%
[10]
  B cells (%): 0.040% and 0.064% and 0.259% and 0.230% and 0.080% and 0.054% and 0.069% and 0.053% and 0.045% and 0.075%
  Eosinophils (%): 0.247% and 0.204% and 0.223% and 0.251% and 0.143% and 0.176% and 0.180% and 0.265% and 0.225% and 0.192%
  Macrophages & dendritic cells (%): 2.218% and 1.674% and 5.674% and 2.257% and 0.618% and 1.800% and 1.175% and 5.084% and 1.252% and 1.516%
  Neutrophils (%): 84.112% and 84.283% and 69.683% and 74.854% and 81.436% and 79.270% and 71.074% and 80.725% and 85.962% and 82.883%
  T cells (%): 0.940% and 0.742% and 5.066% and 3.187% and 1.024% and 1.045% and 1.327% and 0.892% and 1.131% and 1.271%
[11]
  B cells (%): 0.092%
  Eosinophils (%): 0.270%
  Macrophages & dendritic cells (%): 24.471%
  Neutrophils (%): 55.279%
  T cells (%): 1.175%
[12]
  B cells (%): 0.045% and 0.054% and 0.029% and 0.019% and 0.100% and 0.153% and 0.286% and 0.103% and 0.037%
  Eosinophils (%): 0.243% and 0.159% and 0.151% and 0.192% and 0.238% and 0.345% and 0.577% and 0.237% and 0.288%
  Macrophages & dendritic cells (%): 4.399% and 1.327% and 0.529% and 0.437% and 1.661% and 60.592% and 75.765% and 73.903% and 1.626%
  Neutrophils (%): 77.353% and 85.551% and 87.483% and 77.212% and 72.881% and 9.005% and 3.108% and 3.716% and 81.207%
  T cells (%): 1.035% and 0.833% and 0.582% and 0.685% and 1.665% and 2.779% and 0.977% and 1.174% and 0.843%
[13]
  Eosinophils: −
  Macrophages: +
[14]
  Eosinophils: −
  Macrophages: +
